Earlier results as cited in patent publication US11197860B2 (Eli Lilly and Company, priority 2018, dated 2021).

Assays:
[1] = PBC patients; Nevens et al. 2016
[2] = phase 3 trials; EMA Assessment Report for Olumiant
[3] = patients in clinical trials; ALT and AST increases to >=5x and >=10x ULN observed

CC[C@H]1[C@@H](O)[C@@H]2[C@H](CC[C@]3(C)[C@@H]([C@H](C)CCC(=O)O)CC[C@@H]23)[C@@]2(C)CC[C@@H](O)C[C@@H]12 [obeticholic acid, Obeticholic acid]
pruritus (adverse effect) [1]: associated with increased pruritus

CCS(=O)(=O)N1CC(CC#N)(n2cc(-c3ncnc4[nH]ccc34)cn2)C1 [baricitinib, {1-(ethylsulfonyl)-3-[4-(7H-pyrrolo[2,3-d]pyrimidin-4-yl)-1H-pyrazol-1-yl]azetidin-3-yl}acetonitrile]
patient's ALP after treatment [2]: ALP decreased after treatment
incidence of liver enzyme elevation compared to placebo [3]: increased incidence of liver enzyme elevation compared to placebo
